Test results as given in paper doi:10.1101/2025.07.30.667614, “Steric control of signaling bias in the immunometabolic receptor GPR84” (bioRxiv, 2025).
Where two headings read alike, the source gives them in different places.

What was measured:
[1] = biological target: T1, GPR84-WT (Homo sapiens, UniProt Q9NQS5); assay: BRET β-arrestin-1 recruitment assay, HEK293T cells; assay type: cell-based; conditions: for Emax: HEK-293T
T1 construct: FLAG (N); eYFP (C); expressed in transfected cells; host or cells: HEK293T, transient
T1 sequence (Q9NQS5 whole entry): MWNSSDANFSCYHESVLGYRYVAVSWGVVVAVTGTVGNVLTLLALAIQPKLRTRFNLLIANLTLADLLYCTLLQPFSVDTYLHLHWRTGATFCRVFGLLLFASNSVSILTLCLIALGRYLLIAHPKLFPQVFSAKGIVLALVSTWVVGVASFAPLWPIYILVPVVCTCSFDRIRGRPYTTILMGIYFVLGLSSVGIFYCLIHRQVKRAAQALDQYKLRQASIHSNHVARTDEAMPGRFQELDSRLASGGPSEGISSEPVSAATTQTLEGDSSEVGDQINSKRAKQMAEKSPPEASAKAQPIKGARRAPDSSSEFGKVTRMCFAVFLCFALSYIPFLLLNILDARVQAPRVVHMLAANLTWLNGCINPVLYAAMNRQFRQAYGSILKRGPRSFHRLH
Procedure: (§1) As a control, cells were transfected with 100:1 ratio of empty plasmid and the appropriate arrestin isoform fused to nano-luciferase. After 24 h, cells were seeded at 50,000 cells per well in poly-D-lysine-coated white 96-well plates and incubated at 37°C overnight. After 24 h, cells were washed twice with Hank’s balanced salt solution (HBSS), pH 7.4, and 10 μl/well of the nano-luciferase substrate coelenterazine-h (Nanolight Technologies) was added to a final concentration of 5 μM. Cells were incubated in the dark for 10 min at 37°C, after which 10 μl/well of the agonist compound was added, and the cells were incubated for another 5 minutes. 15 min after coelenterazine-h addition, reading of emission signals were performed on a PHERAstar FS plate reader (BMG Labtech) at 475 and 535 nm, representing nano-luciferase and eYFP emission signals, respectively. The net bioluminescence resonance energy transfer (BRET) ratio (mBRET) was calculated as follows: mBRET=(BRET^sample−BRET^control)*1000whereBRET=Emission^535nm/Emission^475nm

[2] = biological target: T2, GPR84 L336A (Homo sapiens, UniProt Q9NQS5, L336A); assay: BRET β-arrestin-1 recruitment assay, HEK293T cells; assay type: cell-based; conditions: for EC50: L336A, read-out: β-arrestin-1 pEC50 ± SEM (converted)
T2 construct: FLAG (N); eYFP (C); expressed in transfected cells; host or cells: HEK293T, transient
T2 sequence (Q9NQS5 whole entry L336A): as the sequence (Q9NQS5 whole entry) above, with L336A counted along it
Procedure: as §1

[3] = biological target: T3, GPR84 F187A (Homo sapiens, UniProt Q9NQS5, F187A); assay: BRET β-arrestin-1 recruitment assay, HEK293T cells; assay type: cell-based; conditions: for EC50: F187A, read-out: β-arrestin-1 pEC50 ± SEM (converted)
T3 construct: FLAG (N); eYFP (C); expressed in transfected cells; host or cells: HEK293T, transient
T3 sequence (Q9NQS5 whole entry F187A): as the sequence (Q9NQS5 whole entry) above, with F187A counted along it
Procedure: as §1

[4] = biological target: T4, GPR84 S331A (Homo sapiens, UniProt Q9NQS5, S331A); assay: BRET β-arrestin-1 recruitment assay, HEK293T cells; assay type: cell-based; conditions: for Emax: HEK-293T
T4 construct: FLAG (N); eYFP (C); expressed in transfected cells; host or cells: HEK293T, transient
T4 sequence (Q9NQS5 whole entry S331A): as the sequence (Q9NQS5 whole entry) above, with S331A counted along it
Procedure: as §1

[5] = biological target: T5, GPR84 (Homo sapiens, UniProt Q9NQS5); assay: CHO-K1-based PathHunter β-arrestin-2 recruitment assay; assay type: cell-based; design: host or cells: CHO-K1; conditions: for Emax: read-out: β-arrestin-2 %Emax ± SEM
T5 sequence (Q9NQS5 whole entry): as the sequence (Q9NQS5 whole entry) above
Procedure: Cells were stimulated with test ligands for 90 min. Compounds were prepared at 5× concentration in DPBS containing 0.1% BSA and 0.125% Tween-80 to minimise aggregation. β-arrestin recruitment was quantified using the PathHunter® β-Arrestin Assay (DiscoverX 93-0001) following the manufacturer’s instructions. Luminescence was recorded after 18 h using a PHERAstar® FS plate reader.

[6] = biological target: T5, GPR84; assay: Competition binding kinetics of [3H]140 (on and off rates of unlabeled ligands); design: expressed in transfected cells; host or cells: membranes; conditions: for Kd: read-out: Koff/Kon
Procedure: The kinetic binding parameters of unlabeled ligands were determined through assessment of the binding kinetics of [^3H]140.[21] […] At the indicated time points, membrane protein was added, and tubes were gently agitated. Three different concentrations of competitor were assessed to ensure that the rate parameters calculated were independent of ligand concentration.

[7] = biological target: T5, GPR84; assay: CHO-K1-based HitHunter cAMP inhibition assay; assay type: cell-based; conditions: wild type GPR84; for EC50: CHO-K1 cells, forskolin 25 μM, read-out: cAMP pEC50 ± SEM (converted); for Emax: normalised to capric acid (100 μM), read-out: cAMP %Emax ± SEM
Procedure: CHO-K1 cells stably expressing human GPR84 (DiscoverX 95-0158C2) were seeded in 384-well plates at 15,000 cells per well in 20 μL of F12 medium supplemented with 10% fetal bovine serum (FBS), 19 mM HEPES, and 1% penicillin-streptomycin. After overnight incubation at 37 °C and 5% CO2, the medium was removed and replaced with PBS containing 0.1% BSA. Cells were stimulated for 30 min with forskolin (25 μM) and test compounds prepared in Dulbecco’s PBS (DPBS) with 0.1% BSA. Compounds were dissolved in DMSO and diluted appropriately. cAMP levels were quantified using the HitHunter® cAMP Assay for Small Molecules (DiscoverX 90-0075SM2) according to the manufacturer’s protocol. Luminescence was measured 18 h post-assay using a PHERAstar® FS plate reader (BMG Labtech).

[8] = biological target: T6, GPR84 (wild type) (Homo sapiens, UniProt Q9NQS5); assay: Competition binding assay with orthosteric antagonist [3H]140
T6 construct: expressed in transfected cells; host or cells: Flp-In T-REx 293 cells (membranes, doxycycline-induced)
T6 sequence (Q9NQS5+P04899 fused P04899:C352I): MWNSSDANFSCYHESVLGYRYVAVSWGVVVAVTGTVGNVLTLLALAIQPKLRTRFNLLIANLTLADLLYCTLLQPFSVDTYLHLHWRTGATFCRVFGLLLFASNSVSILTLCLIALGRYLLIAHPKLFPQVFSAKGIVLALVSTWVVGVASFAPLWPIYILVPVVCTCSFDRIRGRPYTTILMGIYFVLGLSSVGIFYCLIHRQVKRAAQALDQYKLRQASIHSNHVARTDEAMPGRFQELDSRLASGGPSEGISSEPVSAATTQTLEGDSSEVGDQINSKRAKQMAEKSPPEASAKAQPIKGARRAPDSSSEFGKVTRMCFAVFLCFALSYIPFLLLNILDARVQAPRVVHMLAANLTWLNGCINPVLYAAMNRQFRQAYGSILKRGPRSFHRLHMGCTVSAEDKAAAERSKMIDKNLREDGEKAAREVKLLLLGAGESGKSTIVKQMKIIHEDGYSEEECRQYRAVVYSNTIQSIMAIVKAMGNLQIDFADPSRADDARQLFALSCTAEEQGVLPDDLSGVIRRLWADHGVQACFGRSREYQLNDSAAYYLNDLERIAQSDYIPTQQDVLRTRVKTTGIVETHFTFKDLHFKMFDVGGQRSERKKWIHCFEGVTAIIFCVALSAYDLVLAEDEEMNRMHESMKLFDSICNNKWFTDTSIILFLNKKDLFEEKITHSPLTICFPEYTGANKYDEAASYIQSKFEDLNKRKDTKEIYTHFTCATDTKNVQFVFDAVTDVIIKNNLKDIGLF
Procedure: Binding was initiated by the addition of 5 μg membrane protein generated from Flp-In™ T-REx™ cells induced to express the receptor construct of interest with 100 ng/ml doxycycline. Nonspecific binding of the radioligand was determined in the presence of 10 μM compound 837. All assays were performed at 25 °C for 1 h before termination by the addition of ice-cold phosphate-buffered saline (PBS) and vacuum filtration through GF/C glassfibre filter-bottom 96-well microplates using a UniFilter FilterMate Harvester (Revvity). Each well was washed three times with ice-cold PBS and filters were allowed to dry for 2–3 h before addition of 50 μl of Ultima Gold™ XR. Radioactivity was quantified by liquid scintillation spectrometry.

[9] = biological target: T1, GPR84-WT; assay: BRET β-arrestin-2 recruitment assay, HEK293T cells; assay type: cell-based; conditions: Extended Data Table 4, read-out: β-arrestin-2 pEC50 ± SEM (converted)
Procedure: as §1

[10] = biological target: T2, GPR84 L336A; assay: BRET β-arrestin-2 recruitment assay, HEK293T cells; assay type: cell-based; conditions: for EC50: L336A, read-out: β-arrestin-2 pEC50 ± SEM (converted)
Procedure: as §1

[11] = biological target: T3, GPR84 F187A; assay: BRET β-arrestin-2 recruitment assay, HEK293T cells; assay type: cell-based; conditions: for EC50: F187A, read-out: β-arrestin-2 pEC50 ± SEM (converted)
Procedure: as §1

[12] = Extended Data Table 4, read-out: β-arrestin-1 pEC50 ± SEM (converted)
[13] = β-arrestin-1 recruitment, Extended Data Table 6
[14] = competition with [3H]140, Fig. 1f, read-out: pKi (converted)

Structure (SMILES) | EC50 [1, 12] [nM] | Emax [1, 13] [%] | EC50 [2] [nM] | EC50 [3] [nM] | EC50 [4] [nM] | Emax [4] [%] | Emax [5] [%] | Kd ([6]; Fig. 1g) [nM] | EC50 [7] [nM] | Emax [7] [%] | Ki [8, 14] [nM] | EC50 [9] [nM] | EC50 [10] [nM] | EC50 [11] [nM] | further results
[O-][n+]1cc(O)cc(CCc2ccc(Cl)c(C(F)(F)F)c2)c1 [OX04529] | 49 | 18 ± 4 | 1.86 | 3.8 | 28.8 | 24 ± 6 | 10 ± 1.5 | 1.54 ± 0.2 | 0.012 | 97 ± 0.2 | 10.2 | 58.9 | 1.23 | 3.09 | pEC50 ± SEM [1, 13]: 7.10 ± 10.11; efficacy in promoting interaction with β-arrestin-1 ([2]; Leu336Ala GPR84, HEK293T): full agonist; efficacy in promoting interaction with β-arrestin-1 ([3]; Phe187Ala GPR84, HEK293T): substantial efficacy; koff [6]: 0.000649 s⁻¹; kon [6]: 443000 M⁻¹ s⁻¹; Ki ([8]; GPR84-Gi2 fusion protein stable cell line, Extended Data Fig. 7, read-out: pKi (WT) (converted)): 51.3 nM; efficacy in promoting interaction with β-arrestin-2 ([10]; Leu336Ala GPR84, HEK293T): full agonist; efficacy in promoting interaction with β-arrestin-2 ([11]; Phe187Ala GPR84, HEK293T): substantial efficacy
Cc1cc(CCCc2cc(O)c[n+]([O-])c2)ccc1Cl [OX04954] | 39.8 | 71 ± 4 | 2.14 | 5.75 | 30.9 | 66 ± 7 | 71 ± 1.3 | 1.83 ± 0.31 | 0.0126 | 98 ± 1.8 | 6.76 | 28.2 | 1.32 | 4.07 | EC50 ([1]; β-arrestin-1 recruitment, Extended Data Table 6, read-out: pEC50 ± SEM (converted)): 31.6 nM; change in efficacy in β-arrestin-2 recruitment ([5]; compared to OX04929 (so in the source)): no significant change; EC50 ([5]; wild type GPR84, CHO-K1 PathHunter, read-out: β-arrestin-2 pEC50 ± SEM (converted)): 93.3 nM; koff ([6]; Fig. 1g, read-out: Koff (converted)): 0.000429 s⁻¹; kon ([6]; Fig. 1g, read-out: Kon (converted)): 254000 M⁻¹ s⁻¹
